Measured values published in patent US12403132B2, “Methods of treating bone marrow failure syndromes and compositions for use in the same” (The Board of Trustees of the Leland Stanford Junior …, priority 2020, dated 2025).

Tested on: NLK
Assay: NLK expression in differentiating human progenitors (qRT-PCR, Western blot)
Assay type: cell-based
Set-up: reduction of NLK protein expression / NLK expression, % of control: concentration or dose not given beside the values
Details: for NLK expression, % of control: miRNAs or drugs, single and combined; for reduction of NLK protein expression: metformin
Protocol: FIG. 10. Metformin improves erythropoiesis through suppression of NLK expression. (Panel A) Control (shLuc—grey columns) or RPS19-insufficient (shRPS19-—black columns) progenitors were differentiated in erythroid media alone, vehicle or vehicle containing 50 mM metformin or 5 uM SD208 for 5 days. 5000 cells per treatment were lysed and immunopurified NLK was subjected to in vitro kinase assay to determine phosphorylation potential against 3 recognized NLK substrates; NLK itself (upper), c-Myb (middle) or raptor (bottom). (Panel B) Simultaneously, qRT-PCR was performed to examine NLK (upper) and RPS19 (lower) mRNA expression. (Panel C) Active NLK was purified from activated Kp53A1 cells and subjected to in vitro kinase assay in the presence of 0, 50 nM, 50 μM, or 50 mM metformin or SD208. The phosphorylation of NLK (upper), c-Myb (middle) and raptor (lower) was determined after 30 mins. (Panel D) CD34+ progenitors were transduced with a combination of either shRNA against luciferase (shLuc—grey columns) or RPS19 (shRPS19—black columns) and siRNA against a non-targeting sequence (NT) or NLK (siNLK). After 14 days differentiation in the presence or absence of metformin, cells were counted and the percentage of cells with surface expression of CD235 and CD11b were determined by flow cytometry, to yield the number of CD235+ erythroid (upper) and CD11b+ myeloid (lower) cells. The total number of cells is expressed as a percentage of the number of each cell type in the control (untreated/shLuc/NT). […] Statistics: two-tailed Student's t test, significant *P<0.05
RNA was extracted by using total RNA mini kit (Bio-Rad). RNA was transcribed into cDNA by using the iScript cDNA Synthesis Kit (Bio-Rad). The quantitative RT-PCR (qRT-PCR) reaction was run with iQ SYBR Green MasterMix (Bio-Rad) using the CFX384 Touch Real-Time PCR Detection System (Bio-Rad). 7SL small cytoplasmic RNA14 was used as an internal control. miRNA was quantified using TaqMan® Small RNA Assays (Applied Biosystems) as per manufacturer's directions and normalized to snoRNA. Fold change of mRNA and miRNA was calculated by using the comparative Ct method.
Antibodies against RPS19 (#AB40833; Abcam; 1:200 dilution), NLK (#AB97642; Abcam; 1:1000 dilution) c-Myb (#12319; Cell Signaling; 1;1000 dilution), raptor (#AB26264; Abcam 1;1000 dilution), phosphor-Serine (#525280; Calbiochem; 1:1000 dilution), S6K (#9202; Cell Signaling; 1:500 dilution), and 4E-BP1 (#9452; Cell Signaling; 1:500 dilution), and GAPDH (#MAB374; Millipore; 1:10000) were used according to manufacturer's instructions. The target proteins were analyzed by using SuperSignal® West Pico Chemiluminescent Substrate for horseradish peroxidase (Thermo Scientific). Densitometry was performed using Image J software (http://rsb.info.nih.gov/ij/). When indicated, proteins were co-immunoprecipitated prior to immunoblotting. Cell lysates were normalized for protein before preclearing with Protein A/G Agarose (Upstate) for 30 min, before incubating with indicated antibody overnight. Immune complexes were precipitated with Protein A/G Agarose and separated by SDS-PAGE, before being subjected to immunoblotting.
NLK kinase activity was performed as published (5). For Western blotting, antibodies against NLK (#AB97642; Abcam; 1:1000 dilution) and GAPDH (#MAB374; Millipore; 1:10000) were used according to manufacturer's instructions.
MessengerRNA was quantified as described (5). MicroRNA was quantified using TaqMan® Small RNA Assays (Applied Biosystems) as per manufacturer's directions and normalized to snoRNA.

SMILES: Fc1ccc(Cl)cc1-c1nc(Nc2ccncc2)c2nccnc2n1 [SD208]
- influence on NLK expression (5 uM SD208): did not significantly influence

SMILES: CC(C)=CCC[C@](C)(O[C@@H]1O[C@H](CO[C@@H]2O[C@H](CO)[C@@H](O)[C@H](O)[C@H]2O)[C@@H](O)[C@H](O)[C@H]1O)[C@H]1CC[C@]2(C)[C@@H]1[C@H](O)C[C@@H]1[C@@]3(C)CC[C@H](O[C@@H]4O[C@H](CO)[C@@H](O)[C@H](O)[C@H]4O[C@@H]4O[C@H](CO)[C@@H](O)[C@H](O)[C@H]4O)C(C)(C)[C@@H]3CC[C@]12C [ginsenoside Rb1]
- reduction of NLK mRNA expression (RPS19-insufficiency, 50 mM): 43.2%
- reduction of NLK mRNA expression (control, 50 mM): 43.8%
- reduction of NLK protein (differentiating HSPCs, 50 mM): 46.4%
- NLK expression, % of control: 65.4%

SMILES: CN(C)C(=N)N=C(N)N [metformin]
- NLK expression (RPS19-insufficient and control cells): similarly suppressed
- reduction of NLK protein expression (RPS19-insufficient cultures): 65.4%
- reduction of NLK protein expression (control cultures): 62.6%
- NLK expression, % of control: 40.6%
